Data from BindingDB's records for doi:10.1016/s0960-894x(01)00003-8 (Shionogi, 2001).

Assay: Concentration required to inhibit human Cytosolic phospholipase A2

IC50 [nM] | SMILES
420 | CCCCC/C=C\C/C=C\C/C=C\C/C=C\CCCC(=O)C(F)(F)F [Arachidonyltrifluoromethane]
165 | O=C1N=C(O)SC1=Cc1ccc(C(=O)NC[C@@H]2C[C@@H](OCc3ccccc3-c3ccccc3)CN2C(=O)c2ccccc2C(=O)c2ccccc2)cc1 [N-[(2S,4R)-1-(2-Benzoyl-benzoyl)-4-(biphenyl-2-ylmethoxy)-pyrrolidin-2-ylmethyl]-4-[2,4-dioxo-thiazolidin-(5Z)-ylidenemethyl]-benzamide]
4.2 | O=C1N=C(O)SC1=Cc1ccc(C(=O)NC[C@@H]2C[C@@H](S(c3ccccc3)(c3ccccc3)c3ccccc3)CN2C(=O)c2ccccc2C(=O)c2ccc(F)cc2F)cc1 [N-[(2S,4R)-1-[2-(2,4-Difluoro-benzoyl)-benzoyl]-4-(triphenyl-lambda*4*-sulfanyl)-pyrrolidin-2-ylmethyl]-4-[2,4-dioxo-thiazolidin-(5Z)-ylidenemethyl]-benzamide]
